In US12201610B2, “Compositions comprising aticaprant” (Janssen Pharmaceuticals, Inc., priority 2022, dated 2025):

Tested on: subjects with MDD
Assay: CGI-S total score (Example 6)
Type: in vivo, human
Conditions: 10 mg; 59 subjects analyzed; 'at Treatment' (week not given)
Source text: CGI-S is a scale that rates the severity of the subject's illness at the time of assessment, relative to the clinician's past experience with subjects who have the same diagnosis and improvement with treatment. CGI-S provides an overall clinician-determined summary measure of severity of subject's illness that considers all available information, including knowledge of subject's history, psychosocial circumstances, symptoms, behavior, and impact of symptoms on subject's ability to function. CGI-S evaluates severity of psychopathology on scale of 0 to 7. Subject is assessed on severity of mental illness at time of rating according to: 0=not assessed; 1=normal (not at all ill); 2=borderline mentally ill; 3=mildly ill; 4=moderately ill; 5=markedly ill; 6=severely ill; 7=among most extremely ill patients.
iv. To investigate the effect of aticaprant on symptoms of depression using the Clinical Global Impression-Severity (CGI-S), the patient reported Symptoms of Major Depressive Disorder Scale (SMDDS) and the self-assessment of treatment experience (SATE). […]

Cc1cc(C)cc(C2CCCN2Cc2ccc(Oc3ccc(C(N)=O)cc3F)cc2)c1 (stereo not shown) [aticaprant, 3-fluoro-4-4-2-(3,5-dimethylphenyl)pyrrolidin-1-yl-methylphenoxybenzamide]
Change from Treatment Baseline in CGI-S Total Score, Arithmetic Mean (SD): −0.92 ± 1.039 Scores on a scale
